Entries after “also recorded” stand apart in the source; their conditions may differ. No end group written: not given here.
What was measured:
[1] = Stability assay, resistance to degradation in fetal bovine serum; type: in vitro ADME; settings: GIBCO fetal bovine serum, RP-LC peak area, three independent replicates; for Resistance to protease-mediated degradation in fetal bovine serum (in words): followed up to 6 h
Experimental: Fig. 6 Hemolysis and resistance to protease-mediated degradation of engineered peptides. a Schematic of experimental design and hemolytic assay results of Pol-CP-NH2 and derivatives, where hemolytic activity was evaluated by incubating the peptides (0.1–100 μmol L^−1) with human red blood cells in PBS at room temperature for 1 h. Experiments were performed in three independent replicates. b Resistance to degradation of Pol-CP-NH2 and analogs exposed to fetal bovine serum (FBS) proteases for 6 h. Experiments were done in three independent replicates (statistical significance was determined using one-way ANOVA, *p < 0.039, error bars represent standard deviation values)
The resistance to degradation assay is detailed by Powell et al.[89], and peptides were exposed to GIBCO fetal bovine serum. The reaction kinetics were followed by reverse-phase liquid chromatography and the percentage of remaining peptide was calculated by integrating the peptide peak area.

[2] = Circular dichroism spectroscopy, helical fraction (fH); type: physicochemical; settings: CD
Experimental: Fig. 3 Physicochemical features and structure of Pol-CP-NH2 and Ala-scan analogs. a Circular dichroism spectra of Pol-CP-NH2 and Ala-scan derivatives at 50 µmol L^−1 in water, PBS (pH 7.4) and TFE/Water (3:2, v/v) showing peptides transition from unstructured in water to helically structured in TFE/water. Circular dichroism spectra were recorded after four accumulations at 20 °C, using a 1 mm path length quartz cell, between 260 and 190 nm at 50 nm min^-1, with a bandwidth of 0.5 nm. b MIC (µmol L^−1) average for each peptide against the first set of bacteria (E. coli BL21, P. aeruginosa PA01 and PA14, and S. aureus ATCC12600) in three independent replicates vs. fH in TFE/Water solution, where blue boxes represent peptides with lower activity and red boxes show peptides with higher activity compared to the wild-type. Optimal activity is reached in most of the cases for fH values higher than the wild-type
Fig. 4 Physicochemical features and structure of Pol-CP-NH2 and second-generation analogs. Circular dichroism spectra of the peptides at 50 µmol L^−1 in water, MeOH/Water (1:1, v/v), PBS (pH 7.4), POPC (10 mmol L^−1), POPC:DOPE (3:1, 10 mmol L^−1), POPC:POPG (3:1, 10 mmol L^−1), SDS (20 mmol L^−1), TFE/Water (2:3, 3:2, 4:1, v/v) showing peptides transition from unstructured in water to helically structured in TFE/water. Circular dichroism spectra were recorded after four accumulations at 20 °C, using a 1 mm path length quartz cell, between 260 and 190 nm at 50 nm min^−1, with a bandwidth of 0.5 nm
Circular dichroism experiments were performed on a J-815 Circular Dichroism Spectropolarimeter (Jasco). Measurements conditions are described by Torres et al.[84] Peptides at 50 μmol L^−1 were analyzed in ten different environments: water, PBS (pH 7.4), methanol/water (1:1; v-v), TFE/Water (2:3, 3:2 and 4:1; v-v), 10 mmol L^−1 POPC, 10 mmol L^−1 POPC:DOPE (3:1) and 10 mmol L^−1 POPC:POPG (3:1). Vesicles were prepared according to Torres et al.[35]. A Fourier transform filter was applied to minimize background effects.

[3] = RP-HPLC retention time (correlated with hydrophobicity); type: physicochemical; settings: chromatographic, RP-HPLC Supelcosil C18 (4.6 x 150 mm), 60 Å, 5 μm; A 0.1% TFA/H2O, B 0.1% TFA in 90% ACN/H2O; 5-95% B in 30 minutes; 1.0 mL min-1; 220 nm; correlated with Heliquest hydrophobicity
Experimental: First, theoretical values of physicochemical features such as hydrophobicity, hydrophobic moment, and net positive charge were calculated, and helical wheels were generated using the Heliquest webserver[31] (Table 1 and Supplementary Figure 1). Hydrophobicity values produced by the server were correlated with retention times obtained by RP-HPLC analyses (Supplementary Table 1), confirming the accuracy of the computational predictions. Next, peptides were synthesized and tested against the Gram-negative bacteria Escherichia coli and Pseudomonas aeruginosa, as well as against the Gram-positive bacterium Staphylococcus aureus. We obtained slightly different results from those reported by Souza et al.[30], who described activity against Gram-positive bacteria but poor activity against Gram-negative species. […] MIC results were confirmed by colony-forming unit (CFU) counts of bacteria after one day of exposure to the peptides (Supplementary Figure 2).
Supplem enta r y Ta b le 1. Summary of Pol-CP-NH2 and desi gned anal ogs.
Label Pep t id e Sequence Molecular Ob s erv ed Pu rit y HPLC HC50 MIC SIe Cyt oto xic it y
Weight Molecular (%)b Retention (µmo l L-1)d Av er a g e (µmo l L-1)
(D a) Weight (D a)a Time (min)c (µmo l L-1)
aLC/ESI-MS data were obtained on a Model 6130 Infinity mass spectrometer coupled to a Model 1260 HPLC system (Agilent), using a Phenomenex Gemini C18 column (2.0 […]

[4] = test system: HEK293 human embryonic kidney cells; experiment: Cytotoxicity assay (MTS); type: cell-based; settings: for Cytotoxic concentration relative to MIC against P. aeruginosa: HEK293, 48 h, MTS, compared with MIC against P. aeruginosa; for Cytotoxicity (concentration showing cytotoxic activity): HEK293, 50,000 cells per well, peptides 0-64 μmol L-1, 37 °C, 48 h, MTS assay, three independent replicates
Experimental: Fig. 7 Cytotoxicity of engineered peptides. a Schematic of the experimental design for cytotoxicity assays of Pol-CP-NH2 and derivatives against HEK293 human embryonic kidney cells. Briefly, cells were cultured in DMEM medium supplemented with FBS and antibiotics at 37 °C and 5% CO2 and b results obtained by seeding HEK293 50,000 cells and incubating with peptides’ solution (0–64 μmol L^−1) at 37 °C for 48 h. Cell viability was measured by MTS assay. All experiments were performed in independent triplicates (heat map values represent mean values of three independent replicates)
Human embryonic kidney 293 (HEK 293) cells were cultured in Dulbecco’s Modified Eagle Medium suplemented with 10% Fetal Bovine Serum and 1% penicillin-streptomycin at 37 °C in 5% CO2. The day before treatment, 50,000 HEK 293 cells were seeded into each well in 96-well plates. The peptides were added at concentrations ranging from 0 to 64 μmol L^−1 and 48 h after exposure, cell viability was measured by means of MTS (dimethylthiazol-carboxymethoxyphenyl-sulfophenyl-tetrazolium) assay. Experiments were performed in three independent replicates for each condition.

[5] = Toxicity to mice in the skin infection model (body weight); type: in vivo; settings: infected mice treated with 64 μmol L-1 peptide; body weight normalized by non-infected mice
Experimental: Fig. 8 In vivo activity of Pol-CP-NH2 and its analogs. a Schematic of the experimental design. Briefly, the back of mice was shaved and an abrasion was generated to damage the stratum corneum and the upper layer of the epidermis. Subsequently, an aliquot of 50 μL containing 5 × 10^7 CFU of P. aeruginosa in PBS was inoculated over each defined area. […] Four animals per group were euthanized and the area of scarified skin was excised two days post-infection b homogenized using a bead beater for 20 min (25 Hz), and serially diluted for CFU quantification (statistical significance was determined using two-way ANOVA followed by Dunnett’s test, ****p < 0.0001). c Mouse body weight measurements throughout the experiment normalized by the body weight of non-infected mice.
The anti-infective activity of peptides against P. aeruginosa strain PA14 in a mouse model was assessed according to Pane et al.[90] CD-1 IGS female mice (six-weeks-old) were used and maintained in accordance with the Guide for the Care and Use of Laboratory Animals in an AAALAC-accredited facility. All procedures were approved by the MIT’s Institutional Animal Care and Use Committee (IACUC), protocol number 1016-064-19. Two independent experiments were performed with 4 mice per group in each condition. Statistical significance was assessed using a one-way ANOVA.

GLGTILGLLKSL-NH2 [Peptide 20, [Gly]^1-Pol-CP-NH2]
Resistance to protease-mediated degradation in fetal bovine serum (in words) [1]: degraded in a few minutes

ILETKLGLLKSE-NH2 [Peptide 19, [Glu]^3-[Lys]^5-[Glu]^12-Pol-CP-NH2]
Helical fraction fH, MeOH/Water (1:1) ([2]; peptide 50 µmol L-1, MeOH/Water 1:1 v/v, 20 °C): 0.02 | Helical fraction fH, PBS ([2]; peptide 50 µmol L-1, PBS pH 7.4, 20 °C): 0.03 | Helical fraction fH, POPC ([2]; peptide 50 µmol L-1, POPC 10 mmol L-1 vesicles, 20 °C): 0 | Helical fraction fH, POPC/DOPE (3:1) ([2]; peptide 50 µmol L-1, POPC:DOPE 3:1 mol:mol 10 mmol L-1 vesicles, 20 °C): 0.03 | Helical fraction fH, POPC/POPG (3:1) ([2]; peptide 50 µmol L-1, POPC:POPG 3:1 mol:mol 10 mmol L-1 vesicles, 20 °C): 0.04 | Helical fraction fH, SDS ([2]; peptide 50 µmol L-1, SDS 20 mmol L-1 micelles, 20 °C): 0.13 | Helical fraction fH, TFE/Water (2:3) ([2]; peptide 50 µmol L-1, TFE/Water 2:3 v/v, 20 °C): 0.24 | Helical fraction fH, TFE/Water (3:2) ([2]; peptide 50 µmol L-1, TFE/Water 3:2 v/v, 20 °C): 0.21 | Helical fraction fH, TFE/Water (4:1) ([2]; peptide 50 µmol L-1, TFE/Water 4:1 v/v, 20 °C): 0.31 | Helical fraction fH, Water ([2]; peptide 50 µmol L-1, water, 20 °C, 1 mm cell): 0.05 | HPLC Retention Time [3]: 9.2 min

ILGKILGLLKSL-NH2 [Peptide 15, [Lys]^4-Pol-CP-NH2]
Cytotoxic concentration relative to MIC against P. aeruginosa [4]: two-fold to four-fold higher than their MICs | Resistance to protease-mediated degradation in fetal bovine serum (in words) [1]: increased resistance to protease-mediated degradation | remaining at 6 h ([1]; six hours of exposure, read-out: Remaining peptide after exposure to fetal bovine serum): ~50%

ILGTILGLLKSL-NH2 [WT, Pol-CP-NH2, reference compound]
Cytotoxicity (concentration showing cytotoxic activity) ([4]; listed as wild-type peptide): 32 µmol/L | Toxicity to mice / body weight, in words [5]: did not change abruptly

ILGTILKLLKSL-NH2 [Peptide 16, [Lys]^7-Pol-CP-NH2]
Cytotoxicity (concentration showing cytotoxic activity) [4]: 16 µmol/L | Cytotoxic concentration relative to MIC against P. aeruginosa [4]: two-fold to four-fold higher than their MICs | Resistance to protease-mediated degradation in fetal bovine serum (in words) [1]: increased resistance to protease-mediated degradation | Toxicity to mice / body weight, in words [5]: did not change abruptly; also recorded: non-toxic to mice

Reference: paper PMC6286318, “Structure-function-guided exploration of the antimicrobial peptide polybia-CP identifies activity determinants and generates synthetic therapeutic candidates” (Communications Biology, 2018)
